The target in one assay is Cathepsin S (UniProt P25774). Description: Cathepsin enzyme inhibition assay (fluorogenic peptide substrate Z-Val-Val-Arg-AMC), Cathepsin S. It counts as biochemical, human and mouse. Conditions: enzyme 1 nM, substrate 20 μM, pH 6.5; read-out: CatS IC50. An outline of the steps: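 Compounds were combined with 1 nM human or mouse enzyme, and substrate then started the reaction. The buffer was potassium phosphate (100 mM, pH 6.5) containing EDTA-Na 5 mM, Triton X-100 0.001% and […] 5 mM.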

The next assay deals with Cat L (UniProt P07711). Description: Cathepsin enzyme inhibition assay (fluorogenic peptide substrate Z-Val-Val-Arg-AMC), Cathepsin L. It counts as biochemical, human and mouse. Conditions: enzyme 1 nM, substrate 20 μM, pH 6.5; read-out: CatL IC50. An outline of the steps:
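Fluorogenic cleavage of Z-Val-Val-Arg-AMC (20 μM) by 1 nM Cat L was monitored at ex 360/em 465 nm for 20 min, the linear phase. The buffer was 100 mM potassium phosphate pH 6.5 with 5 mM EDTA and DTT. IC50 values were derived by standard methods, in μM.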

Structures can show the parent of a compound that is named as a salt. Where only a bound is given, the exact number is not on record here.

For `N#CC1(NC(=O)[C@@H]2C[C@@H](S(=O)(=O)c3ccc(C4CC4)cc3C(F)(F)F)CN2C(=O)C2(C(F)(F)F)CC2)CC1` [Example 256, (2S,4R)-4-(4-Cyclopropyl-2-trifluoromethyl-benzenesulfonyl)-1-(1-trifluoromethyl-cyclopropanecarbonyl)-pyrrolidine-2-carboxylic acid (1-cyano-cyclopropyl)-amide], the IC50 at Cathepsin S amounted to 0.26 nM; at Cat L it was 45700 nM.

Take `CC1(C(=O)N2C[C@H](S(=O)(=O)c3ccc(Br)cc3C(F)(F)F)C[C@H]2C(=O)NC2(C#N)CC2)CC1` [Example 270, (2S,4R)-4-(4-Bromo-2-trifluoromethyl-benzenesulfonyl)-1-(1-methyl-cyclopropanecarbonyl)-pyrrolidine-2-carboxylic acid (1-cyano-cyclopropyl)-amide]: the figures for the IC50 on Cathepsin S and on Cat L were 0.395 nM and at least 25000 nM, respectively.

For `N#CCNC(=O)[C@@H]1C[C@@H](S(=O)(=O)c2ccccc2Cl)CN1C(=O)C1CCCCC1` [Example 60, (2S,4R)-4-(2-Chloro-benzenesulfonyl)-1-cyclohexanecarbonyl-pyrrolidine-2-carboxylic acid cyanomethyl-amide], the values for the IC50 on Cathepsin S and at Cat L were 0.5 nM and 12800 nM, respectively.

With `COCCN1CCN(c2ccc(S(=O)(=O)[C@@H]3C[C@@H](C(=O)NC4(C#N)CC4)N(C(=O)C4(c5ccc(Cl)nc5)CC4)C3)c(Cl)c2)CC1` [Example 372, (2S,4R)-4-{2-Chloro-4-[4-(2-methoxy-ethyl)-piperazin-1-yl]-benzenesulfonyl}-1-[1-(6-chloro-pyridin-3-yl)-cyclopropanecarbonyl]-pyrrolidine-2-carboxylic acid (1-cyano-cyclopropyl)-amide; Compound with Formic Acid], the results for the IC50 on Cathepsin S and at Cat L were 0.08 nM and 44.3 nM, respectively.

Regarding `Cc1cc(N2C[C@H](S(=O)(=O)c3ccccc3Cl)C[C@H]2C(=O)NC2(C#N)CC2)n(Cc2ccc(Cl)cc2)n1` [Example 418, (2S,4R)-4-(2-Chloro-benzenesulfonyl)-1-[2-(4-chloro-benzyl)-5-methyl-2H-pyrazol-3-yl]-pyrrolidine-2-carboxylic acid (1-cyano-cyclopropyl)-amide], the IC50 on Cathepsin S was found to be 4 nM; on Cat L it was 1620 nM.

Turning to `CC(C)(C)OC(=O)N[C@H]1CC[C@H](CC(=O)N2C[C@H](S(=O)(=O)c3ccc(OCC(F)(F)F)cc3Cl)C[C@H]2C(=O)NC2(C#N)CC2)CC1` [Example 264, (4-{2-[(2S,4R)-4-[2-Chloro-4-(2,2,2-trifluoro-ethoxy)-benzenesulfonyl]-2-(1-cyano-cyclopropylcarbamoyl)-pyrrolidin-1-yl]-2-oxo-ethyl}-cyclohexyl)-carbamic Acid Tert-butyl ester], the IC50 on Cathepsin S is 0.495 nM; on Cat L it was 8380 nM.

Turning to `N#CC1(NC(=O)[C@@H]2C[C@@H](S(=O)(=O)c3ccc(Cl)cc3Cl)CN2C(=O)C2CC2(F)F)CC1` (stereo partly drawn) [Example 170, (2S,4R)-4-(2,4-Dichloro-benzenesulfonyl)-1-(2,2-difluoro-cyclopropanecarbonyl)-pyrrolidine-2-carboxylic acid (1-cyano-cyclopropyl)-amide], the IC50 at Cathepsin S was determined as 1 nM; on Cat L, 18400 nM.

In the case of `N#CC1(NC(=O)C2CC(S(=O)(=O)c3ccccc3C(F)(F)F)CN2c2cccc(OC(F)(F)F)c2)CC1` (centres unmarked) [Example 367, 1-(3-Trifluoromethoxy-phenyl)-4-(2-trifluoromethyl-benzenesulfonyl)-pyrrolidine-2-carboxylic acid (1-cyano-cyclopropyl)-amide], the IC50 at Cathepsin S is 1.57 nM; on Cat L, at least 25000 nM.

Take `N#CC1(NC(=O)[C@@H]2C[C@@H](S(=O)(=O)c3ccccc3C(F)(F)F)CN2C(=O)CC(F)(F)F)CC1` [Example 206, (2S,4R)-4-(2-Trifluoromethyl-benzenesulfonyl)-1-(3,3,3-trifluoro-propionyl)-pyrrolidine-2-carboxylic acid (1-cyano-cyclopropyl)-amide]: the IC50 at Cathepsin S was 0.2 nM; at Cat L, at least 25000 nM.

As to `N#CC1(NC(=O)[C@@H]2C[C@@H](S(=O)(=O)c3ccccc3Cl)CN2C(=O)C2(c3cc(F)c(Cl)cc3Cl)CC2)CC1` [Example 461, (2S,4R)-4-(2-Chloro-benzenesulfonyl)-1-[1-(2,4-dichloro-5-fluoro-phenyl)-cyclopropanecarbonyl]-pyrrolidine-2-carboxylic acid (1-cyano-cyclopropyl)-amide], the IC50 on Cathepsin S was determined as 0.985 nM; at Cat L, 22.5 nM.

With `Cc1cc(N2C[C@H](S(=O)(=O)c3ccc(OCC(F)(F)F)cc3Cl)C[C@H]2C(=O)NC2(C#N)CC2)n(C2CCC2)n1` [Example 480, (2S,4R)-4-[2-Chloro-4-(2,2,2-trifluoro-ethoxy)-benzenesulfonyl]-1-(2-cyclobutyl-5-methyl-2H-pyrazol-3-yl)-pyrrolidine-2-carboxylic acid (1-cyano-cyclopropyl)-amide], the results for the IC50 at Cathepsin S and at Cat L were 1.05 nM and 5360 nM, respectively.

For the compound `N#CC1(NC(=O)[C@@H]2C[C@@H](S(=O)(=O)c3ccc(N4CCOCC4)cc3Cl)CN2C(=O)C2(C(F)(F)F)CC2)CC1` [Example 161, (2S,4R)-4-(2-Chloro-4-morpholin-4-yl-benzenesulfonyl)-1-(1-trifluoromethyl-cyclopropanecarbonyl)-pyrrolidine-2-carboxylic acid (1-cyano-cyclopropyl)-amide], the results for the IC50 on Cathepsin S and on Cat L were 0.4 nM and 6070 nM, respectively.

Take `N#CC1(NC(=O)[C@@H]2C[C@@H](S(=O)(=O)c3ccc(N4CCOCC4=O)cc3C(F)(F)F)CN2)CC1` [Example 30, (2S,4R)-4-[4-(3-Oxo-morpholin-4-yl)-2-trifluoromethyl-benzenesulfonyl]-pyrrolidine-2-carboxylic acid (1-cyano-cyclopropyl)-amide hydrochloride]: the IC50 at Cathepsin S is 3 nM; on Cat L, at least 25000 nM.

Turning to `CN1CCC(C(=O)N2C[C@H](S(=O)(=O)c3ccccc3C(F)(F)F)C[C@H]2C(=O)NCC#N)CC1` [Example 70, (2S,4R)-1-(1-Methyl-piperidine-4-carbonyl)-4-(2-trifluoromethyl-benzenesulfonyl)-pyrrolidine-2-carboxylic acid cyanomethyl-amide formiate], the results for the IC50 at Cathepsin S and at Cat L were 1.6 nM and 25200 nM, respectively.

Turning to `CC(=O)N1C[C@H](S(=O)(=O)c2ccccc2Cl)C[C@H]1C(=O)NC1(C#N)CC1` [Example 79, (2S,4R)-1-Acetyl-4-(2-chloro-benzenesulfonyl)-pyrrolidine-2-carboxylic acid (1-cyano-cyclopropyl)-amide], the IC50 on Cathepsin S was determined as 1.4 nM; at Cat L it was 29700 nM.

Consider `CC(C)(C)OC(=O)N1C[C@H](S(=O)(=O)c2c(Cl)cccc2Cl)C[C@H]1C(=O)NC1(C#N)CC1` [Example 5, (2S,4R)-2-(1-Cyano-cyclopropylcarbamoyl)-4-(2,6-dichloro-benzenesulfonyl)-pyrrolidine-1-carboxylic acid tert-butyl ester], for which the IC50 at Cathepsin S came to 0.8 nM; at Cat L it was 9770 nM.

As for `N#CC1(NC(=O)[C@@H]2C[C@@H](S(=O)(=O)c3ccccc3Cl)CN2c2nc(Cl)ns2)CC1` [Example 486, (2S,4R)-4-(2-Chloro-benzenesulfonyl)-1-(3-chloro-[1,2,4]thiadiazol-5-yl)-pyrrolidine-2-carboxylic acid (1-cyano-cyclopropyl)-amide], the IC50 worked out at 0.85 nM on Cathepsin S and 22000 nM at Cat L.

For `N#CC1(NC(=O)[C@@H]2C[C@@H](S(=O)(=O)c3ccccc3Cl)CN2C(=O)c2ccc(F)cc2)CC1` [Example 76, (2S,4R)-4-(2-Chloro-benzenesulfonyl)-1-(4-fluoro-benzoyl)-pyrrolidine-2-carboxylic acid (1-cyano-cyclopropyl)-amide], the IC50 at Cathepsin S was 1.4 nM; on Cat L, 8800 nM.

`N#CC1(NC(=O)[C@@H]2C[C@@H](S(=O)(=O)c3ccccc3Cl)CN2Cc2ccncc2)CC1` [Example 86, (2S,4R)-4-(2-Chloro-benzenesulfonyl)-1-pyridin-4-ylmethyl-pyrrolidine-2-carboxylic acid (1-cyano-cyclopropyl)-amide]: the IC50 turned out to be 23 nM at Cathepsin S and 14600 nM at Cat L.

With `CC1(C(=O)N2C[C@H](S(=O)(=O)c3ccc(Cl)cc3Cl)C[C@H]2C(=O)NC2(C#N)CC2)CC1` [Example 222, (2S,4R)-4-(2,4-Dichloro-benzenesulfonyl)-1-(1-methyl-cyclopropanecarbonyl)-pyrrolidine-2-carboxylic acid (1-cyano-cyclopropyl)-amide], the IC50 on Cathepsin S was 1.2 nM; at Cat L it was 18600 nM.

As for `N#CC1(NC(=O)[C@@H]2C[C@@H](S(=O)(=O)c3ccccc3Cl)CN2CCC(F)(F)F)CC1` [Example 91, (2S,4R)-4-(2-Chloro-benzenesulfonyl)-1-(3,3,3-trifluoro-propyl)-pyrrolidine-2-carboxylic acid (1-cyano-cyclopropyl)-amide], the values for the IC50 on Cathepsin S and at Cat L were 120 nM and at least 25000 nM, respectively.

For the compound `C[C@H](Oc1ccc(S(=O)(=O)[C@@H]2C[C@H](C(=O)NC3(C#N)CC3)N(C(=O)C3(C(F)(F)F)CC3)C2)c(Cl)c1)C(F)(F)F` [Example 184, (2R,4R)-4-[2-Chloro-4-((S)-2,2,2-trifluoro-1-methyl-ethoxy)-benzenesulfonyl]-1-(1-trifluoromethyl-cyclopropanecarbonyl)-pyrrolidine-2-carboxylic acid (1-cyano-cyclopropyl)-amide], the IC50 at Cathepsin S was 32 nM; on Cat L, at least 25000 nM.
